In patent US11446287B2, “Compounds and methods for EP300 or CBP modulation and indications therefor” (Opna Immuno-Oncology SA, priority 2019, dated 2022):

What follows are compounds tested against T1, Recombinant human EP300 containing the bromodomain (EP300-BD (1040-1161)) (Homo sapiens, UniProt Q09472) (assay: EP300 Alphascreen binding assay).
T1 construct: Recombinant human EP300 bromodomain (EP300-BD (1040-1161)); made in house; host or cells: E. coli BL21-CodonPlus (DE3), modified pET vector
T1 sequence (Q09472 1040-1161): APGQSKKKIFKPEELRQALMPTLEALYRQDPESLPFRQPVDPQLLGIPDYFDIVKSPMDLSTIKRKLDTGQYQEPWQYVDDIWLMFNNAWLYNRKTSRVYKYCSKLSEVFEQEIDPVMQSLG
Method in brief: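 Displacement of a biotinylated acetyl-K56 histone H3 peptide from the N-His bromodomain construct (1040-1161) measured by AlphaScreen proximity, beads at 7.5 μg/ml final, read 60 min after addition. Protein, peptide and compound first incubated 1 h at room temperature, pH 7.5 HEPES buffer; IC50 by four-parameter logistic fit.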

| SMILES | IC50 [nM] |
| --- | --- |
| Cc1nn(C(F)F)cc1-n1cc(-c2ccc(C(=O)O)cc2OC(F)(F)F)c2cc(-c3c(C)noc3C)cnc21 [P-0288, 4-(1-(1-(difluoromethyl)-3-methyl-1H-pyrazol-4-yl)-5-(3,5-dimethylisoxazol-4-yl)-1H-pyrrolo[2,3-b]pyridin-3-yl)-3-(trifluoromethoxy)benzoic acid] | 0.1 to 1000 |
| Cc1noc(C)c1-c1cnc2c(c1)c(-c1ccc(C(=O)O)cc1OC(F)(F)F)cn2-c1cnn(C(F)F)c1C [P-0289, 4-(1-(1-(difluoromethyl)-5-methyl-1H-pyrazol-4-yl)-5-(3,5-dimethylisoxazol-4-yl)-1H-pyrrolo[2,3-b]pyridin-3-yl)-3-(trifluoromethoxy)benzoic acid] | 0.1 to 1000 |
| Cc1noc(C)c1-c1cnc2c(c1)c(-c1ccc(C(=O)O)cc1OC(F)(F)F)cn2C1CCNCC1 [P-0290, 4-(5-(3,5-dimethylisoxazol-4-yl)-1-(piperidin-4-yl)-1H-pyrrolo[2,3-b]pyridin-3-yl)-3-(trifluoromethoxy)benzoic acid] | 0.1 to 1000 |
| CC(=O)N1CCC(n2cc(-c3ccc(C(=O)O)cc3OC(F)(F)F)c3cc(-c4c(C)noc4C)cnc32)CC1 [P-0291, 4-(1-(1-acetylpiperidin-4-yl)-5-(3,5-dimethylisoxazol-4-yl)-1H-pyrrolo[2,3-b]pyridin-3-yl)-3-(trifluoromethoxy)benzoic acid] | 0.1 to 1000 |
| Cc1noc(C)c1-c1cnc2c(c1)c(-c1ccc(C(=O)O)cc1OC(F)(F)F)cn2C1CCN(S(C)(=O)=O)CC1 [P-0292, 4-(5-(3,5-dimethylisoxazol-4-yl)-1-(1-(methylsulfonyl)piperidin-4-yl)-1H-pyrrolo[2,3-b]pyridin-3-yl)-3-(trifluoromethoxy)benzoic acid] | 0.1 to 1000 |
| Cc1noc(C)c1-c1cnc2c(c1)c(-c1ccc(C(=O)O)cc1OC(F)(F)F)cn2-c1ccncc1F [P-0293, 4-(5-(3,5-dimethylisoxazol-4-yl)-1-(3-fluoropyridin-4-yl)-1H-pyrrolo[2,3-b]pyridin-3-yl)-3-(trifluoromethoxy)benzoic acid] | 0.1 to 1000 |
| Cc1noc(C)c1-c1cnc2c(c1)c(-c1ccc(C(=O)O)cc1OC(F)(F)F)cn2-c1cnn(CC(C)(C)O)c1 [P-0294, 4-(5-(3,5-dimethylisoxazol-4-yl)-1-(1-(2-hydroxy-2-methylpropyl)-1H-pyrazol-4-yl)-1H-pyrrolo[2,3-b]pyridin-3-yl)-3-(trifluoromethoxy)benzoic acid] | 0.1 to 1000 |
| CCOc1cc(C(=O)O)ncc1-c1cn(-c2ccc(F)cc2F)c2ncc(-c3c(C)noc3C)cc12 [P-0295, 5-(1-(2,4-difluorophenyl)-5-(3,5-dimethylisoxazol-4-yl)-1H-pyrrolo[2,3-b]pyridin-3-yl)-4-ethoxypicolinic acid] | 0.1 to 1000 |
| CCOc1c(F)c(C(=O)O)c(F)c(OCC)c1-c1cn(-c2ccc(F)cc2F)c2ncc(-c3c(C)noc3C)cc12 [P-0296, 4-(1-(2,4-difluorophenyl)-5-(3,5-dimethylisoxazol-4-yl)-1H-pyrrolo[2,3-b]pyridin-3-yl)-3,5-diethoxy-2,6-difluorobenzoic acid] | 0.1 to 1000 |
| CCOc1cc(C(=O)O)c(F)c(OCC)c1-c1cn(-c2ccc(F)cc2F)c2ncc(-c3c(C)noc3C)cc12 [P-0297, 4-(1-(2,4-difluorophenyl)-5-(3,5-dimethylisoxazol-4-yl)-1H-pyrrolo[2,3-b]pyridin-3-yl)-3,5-diethoxy-2-fluorobenzoic acid] | 0.1 to 1000 |
| Cc1noc(C)c1-c1cnc2c(-c3ccccc3)cn(-c3c(OCC(F)(F)F)cc(C(=O)O)cc3OCC(F)(F)F)c2c1 [P-0298, 4-(6-(3,5-dimethylisoxazol-4-yl)-3-phenyl-1H-pyrrolo[3,2-b]pyridin-1-yl)-3,5-bis(2,2,2-trifluoroethoxy)benzoic acid] | 0.1 to 1000 |
| Cc1noc(C)c1-c1cnc2c(c1)c(-c1ccc(C(=O)O)cc1OC(C)C)cn2-c1cnn(CC(C)(C)O)c1 [P-0299, 4-(5-(3,5-dimethylisoxazol-4-yl)-1-(1-(2-hydroxy-2-methylpropyl)-1H-pyrazol-4-yl)-1H-pyrrolo[2,3-b]pyridin-3-yl)-3-isopropoxybenzoic acid] | 0.1 to 1000 |
| Cc1noc(C)c1-c1cnc2c(c1)c(-c1ccc(C(=O)O)cc1OC(C)C)cn2-c1cnc(N2CCC2)nc1 [P-0300, 4-(1-(2-(azetidin-1-yl)pyrimidin-5-yl)-5-(3,5-dimethylisoxazol-4-yl)-1H-pyrrolo[2,3-b]pyridin-3-yl)-3-isopropoxybenzoic acid] | 0.1 to 1000 |
| Cc1noc(C)c1-c1cnc2c(c1)c(-c1ccc(C(=O)O)cc1OC(C)C)cn2[C@H]1CCOC1 [P-0301, (S)-4-(5-(3,5-dimethylisoxazol-4-yl)-1-(tetrahydrofuran-3-yl)-1H-pyrrolo[2,3-b]pyridin-3-yl)-3-isopropoxybenzoic acid] | 0.1 to 1000 |
| Cc1noc(C)c1-c1cnc2c(c1)c(-c1ccc(S(C)(=O)=O)cc1OC(C)C)cn2-c1ccccc1 [P-0302, 4-(3-(2-isopropoxy-4-(methylsulfonyl)phenyl)-1-phenyl-1H-pyrrolo[2,3-b]pyridin-5-yl)-3,5-dimethylisoxazole] | 0.1 to 1000 |
| CCCn1nc(C(=O)O)c(N)c1-c1cn(-c2ccc(F)cc2F)c2ncc(-c3c(C)noc3C)cc12 [P-0303, 4-amino-5-(1-(2,4-difluorophenyl)-5-(3,5-dimethylisoxazol-4-yl)-1H-pyrrolo[2,3-b]pyridin-3-yl)-1-propyl-1H-pyrazole-3-carboxylic acid] | 0.1 to 1000 |
| CCCn1nc(C(=O)O)c(NCC)c1-c1cn(-c2ccc(F)cc2F)c2ncc(-c3c(C)noc3C)cc12 [P-0304, 5-(1-(2,4-difluorophenyl)-5-(3,5-dimethylisoxazol-4-yl)-1H-pyrrolo[2,3-b]pyridin-3-yl)-4-(ethylamino)-1-propyl-1H-pyrazole-3-carboxylic acid] | 0.1 to 1000 |
| Cc1nnn(C)c1-c1cnc2c(c1)c(-c1ccc(C(=O)O)cc1OC(F)(F)F)cn2CC/C=C/C1CC1 [P-0305, (E)-4-(1-(4-cyclopropylbut-3-en-1-yl)-5-(1,4-dimethyl-1H-1,2,3-triazol-5-yl)-1H-pyrrolo[2,3-b]pyridin-3-yl)-3-(trifluoromethoxy)benzoic acid] | 0.1 to 1000 |
| Cc1noc(C)c1-c1cnc2c(c1)c(-c1ccc(C(=O)O)cc1OCC(F)F)cn2-c1ccncc1Cl [P-0306, 4-(1-(3-chloropyridin-4-yl)-5-(3,5-dimethylisoxazol-4-yl)-1H-pyrrolo[2,3-b]pyridin-3-yl)-3-(2,2-difluoroethoxy)benzoic acid] | 0.1 to 1000 |
| Cc1noc(C)c1-c1cnc2c(c1)c(-c1ccc(C(=O)O)cc1OC(F)(F)F)cn2-c1ccccc1Cl [P-0307, 4-(1-(2-chlorophenyl)-5-(3,5-dimethylisoxazol-4-yl)-1H-pyrrolo[2,3-b]pyridin-3-yl)-3-(trifluoromethoxy)benzoic acid] | 0.1 to 1000 |
| Cc1noc(C)c1-c1cnc2c(c1)c(-c1ccc(C(=O)O)cc1OC(F)(F)F)cn2-c1ccccc1C1CC1 [P-0308, 4-(1-(2-cyclopropylphenyl)-5-(3,5-dimethylisoxazol-4-yl)-1H-pyrrolo[2,3-b]pyridin-3-yl)-3-(trifluoromethoxy)benzoic acid] | 0.1 to 1000 |
| Cc1noc(C)c1-c1cnc2c(c1)c(-c1ccc(C(=O)O)cc1OC(F)(F)F)cn2-c1ccccc1C#N [P-0309, 4-(1-(2-cyanophenyl)-5-(3,5-dimethylisoxazol-4-yl)-1H-pyrrolo[2,3-b]pyridin-3-yl)-3-(trifluoromethoxy)benzoic acid] | 0.1 to 1000 |
| Cc1cc(C#N)ccc1-n1cc(-c2ccc(C(=O)O)cc2OC(F)(F)F)c2cc(-c3c(C)noc3C)cnc21 [P-0310, 4-(1-(4-cyano-2-methylphenyl)-5-(3,5-dimethylisoxazol-4-yl)-1H-pyrrolo[2,3-b]pyridin-3-yl)-3-(trifluoromethoxy)benzoic acid] | 0.1 to 1000 |
| COc1ccc(-n2cc(-c3ccc(C(=O)O)cc3OC(F)(F)F)c3cc(-c4c(C)noc4C)cnc32)c(F)c1 [P-0311, 4-(5-(3,5-dimethylisoxazol-4-yl)-1-(2-fluoro-4-methoxyphenyl)-1H-pyrrolo[2,3-b]pyridin-3-yl)-3-(trifluoromethoxy)benzoic acid] | 0.1 to 1000 |
| C=C(C)c1ccccc1-n1cc(-c2ccc(C(=O)O)cc2OC(F)(F)F)c2cc(-c3c(C)noc3C)cnc21 [P-0312, 4-(5-(3,5-dimethylisoxazol-4-yl)-1-(2-(prop-1-en-2-yl)phenyl)-1H-pyrrolo[2,3-b]pyridin-3-yl)-3-(trifluoromethoxy)benzoic acid] | 0.1 to 1000 |
| Cc1noc(C)c1-c1cnc2c(c1)c(-c1ccc(C(=O)O)cc1OC(F)(F)F)cn2-c1ccc(C#N)cc1 [P-0313, 4-(1-(4-cyanophenyl)-5-(3,5-dimethylisoxazol-4-yl)-1H-pyrrolo[2,3-b]pyridin-3-yl)-3-(trifluoromethoxy)benzoic acid] | 0.1 to 1000 |
| Cc1noc(C)c1-c1cnc2c(c1)c(-c1ccc(C(=O)O)cc1OC(F)(F)F)cn2-c1ccc(C(C)(C)O)cc1 [P-0314, 4-(5-(3,5-dimethylisoxazol-4-yl)-1-(4-(2-hydroxypropan-2-yl)phenyl)-1H-pyrrolo[2,3-b]pyridin-3-yl)-3-(trifluoromethoxy)benzoic acid] | 0.1 to 1000 |
| Cc1noc(C)c1-c1cnc2c(c1)c(-c1ccc(C(=O)O)cc1OC(F)(F)F)cn2-c1ccsc1 [P-0315, 4-(5-(3,5-dimethylisoxazol-4-yl)-1-(thiophen-3-yl)-1H-pyrrolo[2,3-b]pyridin-3-yl)-3-(trifluoromethoxy)benzoic acid] | 0.1 to 1000 |
